Source: article PMC11396129, “Oxindole–benzothiazole hybrids as CDK2 inhibitors and anticancer agents: design, synthesis and biological evaluation” (BMC Chemistry, 2024)

What was measured:
Assay type in all cases: cell-based, human
[1] = test system: COLO 205; test: NCI 60 panel growth inhibition (SRB), colon cancer
Outline: (§1)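 Percentage growth came from SRB absorbance at five drug levels, scaled between a time-zero plate fixed with TCA at drug addition and untreated control.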

[2] = test system: HCT-116; test: NCI 60 panel growth inhibition (SRB), colon cancer; settings: for GI%: HCT-116, 10 μM
Outline: as §1

[3] = test system: KM12; test: NCI 60 panel growth inhibition (SRB), colon cancer; settings: for GI%: KM12, 10 μM
Outline: as §1

[4] = test system: SW-620; test: NCI 60 panel growth inhibition (SRB), colon cancer; settings: for GI%: SW-620, 10 μM
Outline: as §1

[5] = test system: HCT-15; test: NCI 60 panel growth inhibition (SRB), colon cancer; settings: for GI%: HCT-15, 10 μM
Outline: as §1

[6] = test system: HCC-2998; test: NCI 60 panel growth inhibition (SRB), colon cancer; settings: for GI%: HCC-2998, 10 μM
Outline: as §1

[7] = test system: IGROV1; test: NCI 60 panel growth inhibition (SRB), ovarian cancer; settings: for GI%: IGROV1, 10 μM
Outline: as §1

[8] = test system: OVCAR-5; test: as above; settings: for GI%: OVCAR-5, 10 μM
Outline: as §1

[9] = test system: OVCAR-3; test: as above; settings: for GI%: OVCAR-3, 10 μM
Outline: as §1

[10] = test system: OVCAR-4; test: as above; settings: for GI%: OVCAR-4, 10 μM
Outline: as §1

[11] = test system: OVCAR-8; test: as above; settings: for GI%: OVCAR-8, 10 μM
Outline: as §1

[12] = test system: NCI/ADR-RES; test: as above; settings: for GI%: 10 μM
Outline: as §1

[13] = test system: SK-OV-3; test: as above
Outline: as §1

[14] = test system: SF-295; test: NCI 60 panel growth inhibition (SRB), CNS cancer; settings: for GI%: SF-295, 10 μM
Outline: as §1

[15] = test system: SF-268; test: NCI 60 panel growth inhibition (SRB), CNS cancer; settings: for GI%: SF-268, 10 μM
Outline: as §1

[16] = test system: SNB-75; test: NCI 60 panel growth inhibition (SRB), CNS cancer; settings: SNB-75, 10 μM
Outline: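 Selected compounds progressed from a single-dose mean-graph screen to five-concentration testing. Percentage growth, with negative values indicating cell kill below Tz, was computed per level, giving TGI among three parameters.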

[17] = test system: SF-539; test: NCI 60 panel growth inhibition (SRB), CNS cancer; settings: for GI%: SF-539, 10 μM
Outline: as §1

[18] = test system: SNB-19; test: NCI 60 panel growth inhibition (SRB), CNS cancer; settings: for GI%: SNB-19, 10 μM
Outline: as §1

[19] = test system: EKVX; test: NCI 60 panel growth inhibition (SRB), non-small cell lung cancer; settings: for GI%: 10 μM
Outline: as §1

[20] = test system: NCI-H460; test: as above; settings: for GI%: NCI-H460, 10 μM
Outline: as §1

[21] = test system: NCI-H522; test: as above; settings: for GI%: NCI-H522, 10 μM
Outline: as §1

[22] = test system: HOP-62; test: as above
Outline: as §1

[23] = test system: NCI-H322M; test: as above; settings: for GI%: 10 μM
Outline: as §1

[24] = test system: HOP-92; test: as above; settings: for GI%: HOP-92, 10 μM
Outline: as §1

[25] = test system: NCI-H226; test: as above; settings: for GI%: NCI-H226, 10 μM
Outline: as §1

[26] = test system: NCI-H23; test: as above; settings: for GI%: NCI-H23, 10 μM
Outline: as §1

[27] = test system: A549/ATCC; test: as above; settings: for GI%: 10 μM
Outline: as §1

[28] = test system: NCI 60 cancer cell line panel; test: NCI 60 panel growth inhibition (SRB), whole panel; settings: for Mean GI%: mean over NCI 60 panel, 10 μM
Outline: as §1

[29] = test system: SR; test: NCI 60 panel growth inhibition (SRB), leukemia; settings: for GI%: 10 μM
Outline: as §1

[30] = test system: CCRF-CEM; test: NCI 60 panel growth inhibition (SRB), leukemia; settings: for GI%: 10 μM
Outline: as §1

[31] = test system: MOLT-4; test: NCI 60 panel growth inhibition (SRB), leukemia; settings: for GI%: MOLT-4, 10 μM
Outline: as §1

[32] = test system: HL-60(TB); test: NCI 60 panel growth inhibition (SRB), leukemia; settings: for GI%: HL-60(TB), 10 μM
Outline: as §1

[33] = test system: K-562; test: NCI 60 panel growth inhibition (SRB), leukemia; settings: for GI%: K-562, 10 μM
Outline: as §1

[34] = test system: RPMI-8226; test: NCI 60 panel growth inhibition (SRB), leukemia; settings: for GI%: RPMI-8226, 10 μM
Outline: as §1

SMILES: COc1cccc(-c2nc3ccccc3s2)c1OCC(=O)NN=C1C(=O)Nc2ccc([N+](=O)[O-])cc21 [Compound 9j, 2-(2-(Benzo[d]thiazol-2-yl)-6-methoxyphenoxy)-N′-(5-nitro-2-oxoindolin-3-ylidene)acetohydrazide]
- GI% ([1]; COLO 205, 10 μM): – (GI% < 5%)
- GI% [2]: 7.08%
- GI% [3]: 5.79%
- GI% [4]: – (GI% < 5%)
- GI% [5]: 5.47%
- GI% [6]: – (GI% < 5%)
- GI% [7]: – (GI% < 5%)
- GI% [8]: – (GI% < 5%)
- GI% [9]: – (GI% < 5%)
- GI% [10]: 5.61%
- GI% [11]: – (GI% < 5%)
- GI% [12]: 6.51%
- GI% ([13]; SK-OV-3, 10 μM): – (GI% < 5%)
- GI% [14]: 11.71%
- GI% [15]: – (GI% < 5%)
- GI% [16]: – (GI% < 5%)
- GI% [17]: – (GI% < 5%)
- GI% [18]: 5.77%
- GI% [19]: 26.64%
- GI% [20]: – (GI% < 5%)
- GI% [21]: – (GI% < 5%)
- GI% ([22]; HOP-62, 10 μM): – (GI% < 5%)
- GI% [23]: 6.18%
- GI% [24]: 30.70%
- GI% [25]: 21.82%
- GI% [26]: 22.82%
- GI% [27]: 5.97%
- Mean GI% [28]: – (GI% < 5%)
- GI% [29]: – (GI% < 5%)
- GI% [30]: 34.81%
- GI% [31]: 9.01%
- GI% [32]: – (GI% < 5%)
- GI% [33]: – (GI% < 5%)
- GI% [34]: 22.11%

SMILES: COc1ccc2c(c1)C(=NNC(=O)COc1cc(-c3nc4ccccc4s3)ccc1OC)C(=O)N2 [Compound 9o, 2-(5-(Benzo[d]thiazol-2-yl)-2-methoxyphenoxy)-N′-(5-methoxy-2-oxoindolin-3-ylidene)acetohydrazide]
- GI50 ([1]; Homo sapiens, COLO 205, five dose): 10.6 µM
- GI% [2]: 87.90%
- GI50 ([2]; Homo sapiens, HCT-116, five dose): 4.5 µM
- GI50 ([3]; Homo sapiens, KM12, five dose): > 100 µM
- GI% [3]: 36.53%
- GI50 ([4]; Homo sapiens, SW-620, five dose): 2.27 µM
- GI% [4]: 148.26%
- GI% [5]: 127.40%
- GI50 ([5]; Homo sapiens, HCT-15, five dose): 3.6 µM
- GI% [6]: 44.35%
- GI50 ([6]; Homo sapiens, HCC-2998, five dose): 5.34 µM
- GI50 ([7]; Homo sapiens, IGROV-1, IGROV1, five dose): 2.22 µM
- GI% [7]: 18.68%
- GI50 ([8]; Homo sapiens, OVCAR-5, five dose): > 100 µM
- GI% [8]: 9.28%
- GI50 ([9]; Homo sapiens, OVCAR-3, five dose): 2.49 µM
- GI% [9]: 94.12%
- GI50 ([10]; Homo sapiens, OVCAR-4, five dose): > 100 µM
- GI% [10]: 68.35%
- GI50 ([11]; Homo sapiens, OVCAR-8, five dose): 4.02 µM
- GI% [11]: 93.38%
- GI% [12]: 130.36%
- GI50 ([12]; Homo sapiens, five dose): 18.5 µM
- GI50 ([13]; Homo sapiens, SK-OV-3, five dose): 48.9 µM
- GI50 ([14]; Homo sapiens, SF-295, five dose): 11.8 µM
- GI% [14]: 31.59%
- GI50 ([15]; Homo sapiens, SF-268, five dose): > 100 µM
- GI% [15]: 51.91%
- GI% [16]: – (GI% < 5%)
- GI50 ([17]; Homo sapiens, SF-539, five dose): 39.9 µM
- GI% [17]: 12.44%
- GI50 ([18]; Homo sapiens, SNB-19, five dose): 5.72 µM
- GI% [18]: 49.50%
- GI% [19]: 55.62%
- GI50 ([19]; Homo sapiens, five dose): 20 µM
- GI50 ([20]; Homo sapiens, NCI-H460, five dose): 9.26 µM
- GI% [20]: 106.89%
- GI50 ([21]; Homo sapiens, NCI-H522, five dose): 48 µM
- GI% [21]: 5.70%
- GI50 ([22]; Homo sapiens, HOP-62, five dose): 7.84 µM
- GI% [23]: 9.70%
- GI50 ([23]; Homo sapiens, five dose): > 100 µM
- GI% [24]: 15.22%
- GI50 ([24]; Homo sapiens, HOP-92, five dose): 51.9 µM
- GI50 ([25]; Homo sapiens, NCI-H226, five dose): 21.3 µM
- GI% [25]: 5.08%
- GI50 ([26]; Homo sapiens, NCI-H23, five dose): 3.03 µM
- GI% [26]: 84.74%
- GI% [27]: 39.87%
- GI50 ([27]; Homo sapiens, five dose): 30.9 µM
- GI50 ([28]; Homo sapiens, five dose, NCI cancer cell lines, read-out: GI50 reached (most sensitive NCI cell line)): 2.02 µM
- Mean GI% [28]: 55.91%
- GI% [29]: 35.47%
- GI50 ([29]; Homo sapiens, five dose): 20.9 µM
- GI% [30]: 57.64%
- GI50 ([30]; Homo sapiens, five dose): 6.08 µM
- GI50 ([31]; Homo sapiens, MOLT-4, five dose): 5.05 µM
- GI% [31]: 36.32%
- GI% [32]: 7.99%
- GI50 ([32]; Homo sapiens, HL-60 (TB), five dose): > 100 µM
- GI50 ([33]; Homo sapiens, K562, K-562, five dose): 3.75 µM
- GI% [33]: 64.36%
- GI50 ([34]; Homo sapiens, RPMI-8226, five dose): 61.4 µM
- GI% [34]: 66.93%
